According to US6855312B1, “Hair care composition” (The Boots Company PLC, priority 1999, dated 2005):

Test system: Linoleic acid (model skin and hair lipid)
Assay: UVA/B-induced lipid peroxidation of linoleic acid, lipid hydroperoxides by colorimetric test (In Vitro Tests)
Format: biochemical
Conditions: first series; compared to irradiated vehicle alone; broad spectrum UVA/B
Protocol: Linoleic acid (model skin and hair lipid) was incubated in the presence of various antioxidants and antoxidant combinations and was exposed to broad spectrum UVA/B to induce oxidation of the lipid. Following extraction of the lipid into methanol, the amount of lipid hydroperoxides (free radical generated damage) formed were measured with a specific colorimetric biochemical test. The degree of inhibition afforded by the antioxidants was thus measured and compared to irradiated vehicle controls.
The percentage inhibition of free radical mediated lipid peroxidation when compared to the vehicle alone are given below.
In a second series of experiments using antoxidants collected in a later season gave the following results.

Compound: O=C1O[C@H]([C@@H](O)CO)C([O-])=C1OP(=O)([O-])[O-].[Na+].[Na+].[Na+] [Sodium ascorbyl phosphate]
- % inhibition of free radical mediated lipid peroxidation (observed): 21%
